Test results reported in patent US4579841A, “Dipeptide derivatives having opiate activity” (University Patents, Inc., priority 1981, dated 1986).
Where a SMILES comes first, the peptide text is derived from it. [ ]: non-standard residue; d: D form.

System: electrically stimulated guinea pig ileum
Experiment: In vitro assay on the electrically stimulated guinea pig ileum (Chipkin, et al.)
Type: cell-based
Conditions: potency relative to methionine-enkephalin=100
Description: Peptides were assayed for biological activity in vitro on the electrically stimulated guinea pig ileum, using the procedure described by Chipkin, et al. (Life Sciences 28:1517-1522, 1981). All potencies of the peptides in this assay are reported relative to the potency of methionine-enkephalin=100. Analgesic activity of the peptides in vivo was assayed by the tail-flick method following intracerebroventricular injection, as described in the Chipkin, et al., reference. The standard for this assay was Tyr-D-Ala-Gly-Phe-Met-amide.
*(Assay on the stimulated guinea pig ileum according to Chipkin, et al.;
standard peptide is methionineenkephalin.)

`NC(=O)[C@@H](Cc1ccccc1)NC(=O)[C@@H](N)Cc1ccc(O)cc1` [Tyr--D-Phe--NH2] (H-Tyr-[dF]-NH2) was tested, and the “Relate In Vitro Potency” value was 0.1.
